Drawing on ChEMBL document CHEMBL6103657, “Discovery of a Potent SARM1 Base-Exchange Inhibitor with In Vivo Efficacy” (J Med Chem, 2025), this text covers solubility and logD for 3 compounds.

Data set [1] can be described thus: physchem. The conditions noted are these: buffer, pH 6.5.
The nature of data set [2]: physchem. To be noted: octanol/aqueous buffer, pH 7.4.

For `CC[C@@H](c1ccncc1)N(C)C(=O)N[C@@H]1COCC1(F)F`, the solubility in the data set “physchem [1]” was greater than 299 µg/mL. Moreover, in “physchem [2]”, the logD was 0.73.
Compound `C[C@@H](c1ccncc1)N(C)/C(=N\C#N)NC1COCC1(F)F` (stereo partly specified) had a solubility in “physchem [1]” greater than 309 µg/mL. For the same compound, the logD in the data set “physchem [2]” was 0.9.
Regarding `CN(Cc1ccncc1)C(=O)NC1COCC1(F)F` (stereo unspecified), in the data set “physchem [1]”, the solubility was greater than 271 µg/mL. In “physchem [2]”, this compound displayed a logD of 0.3.
